From patent publication US20260335335A1, “PHARMACEUTICAL FORMULATION COMPRISING A COATED TABLET” (Genentech, Inc., priority 2023, published 2026)
Entries after “also recorded” stand apart in the source; their conditions may differ.

Key:
[1] = Light sensitivity of GDC-0077 (INAVOLISIB); format: physicochemical
mutant PI3Kα = conditions: role: inhibitor; relative to non-mutant PI3Kα; cited from earlier work
PI3Kα isoform = conditions: role: inhibitor; relative to PI3 KB, PI3K8 and PI3Ky isoforms; cited from earlier work

Compound: C[C@H](Nc1ccc2c(c1)OCCn1cc(N3C(=O)OC[C@H]3C(F)F)nc1-2)C(N)=O [GDC-0077 (INAVOLISIB), (S)-2-((2-((S)-4-(difluoromethyl)-2-oxooxazolidin-3-yl)-5,6-dihydrobenzo[f]imidazo[1,2-d][1,4]oxazepin-9-yl)amino)propanamide]
- Light sensitivity (in words) [1]: degrades under light stress conditions; also recorded: sensitive to light
- Selectivity for mutant PI3Kα (in words) (mutant PI3Kα): selective for mutant PI3Kα expressing tumors relative to non-mutant PI3Kα expressing cells; also recorded: selective activity in modulating mutant forms of the PI3Kα (alpha) isoform
- Selectivity for PI3Kα isoform (in words) (PI3Kα isoform): selectively inhibits the PI3Kα isoform relative to the PI3 KB, PI3K8, and PI3Ky isoforms
